Details of data set [1]: method as in GlaxoSmithKline (GSK) data on file. To be noted: mouse; ref GlaxoSmithKline (GSK) data on file; cited from earlier work.
Data set [2] in a line: [11C]GSK1034702 PET brain distribution and kinetics in healthy male humans. Format: in vivo. As to conditions: male, human, intravenous. On the procedure: (§1) An open-label PET study (GSK study number 110771) was conducted to assess the transport of [^11C]GSK1034702 across the BBB and its distribution in the living human brain. Four healthy males aged between 35 and 55 years old, with body mass index (BMI) between 19.0 and 29.0 kg/m^2, and the absence of past or present neurological, medical or psychiatric illnesses and concomitant medications were enrolled. Clinical status was assessed by history, physical examination, routine blood tests, urine toxicology and electrocardiogram. All subjects provided written informed consent. The study was approved by the Edinburgh Independent Ethics Committee for Medical Research and permission to administer radioisotopes was obtained from the Administration of Radioactive Substances Advisory Committee of the UK. Subjects were recruited by and monitored by the Hammersmith Medicines Research (HMR) clinic. All scanning procedures were performed at the GlaxoSmithKline Clinical Imaging Center, Hammersmith Hospital, London.
(§2) Each subject underwent a single study day, during which PET imaging was performed. T1-weighted structural MRI scan was performed for all subjects to provide neuroanatomical information. A tracer dose of [^11C]GSK1034702 (mass <50 μg) was administered as an IV bolus immediately before each PET scan. During the scanning day, each subject received a baseline [^11C]GSK1034702 scan, followed by a single 5-mg oral dose (p.o.) of […] and a subsequent [^11C]GSK1034702 scan approximately 4 h post-dose. Subjects returned to the clinic for a follow-up visit 7 to 14 days following the oral dose of GSK1034702.
Dynamic PET data were acquired using a Siemens Biograph 6 Truepoint with TrueV PET-CT (Siemens Healthcare, Malvern, PA, USA) in three-dimensional (3D) mode. A computed tomography (CT) scan was acquired for attenuation correction of PET data prior to administration of the radiotracer. A cannula was inserted under local anaesthesia into the radial artery, contralateral to the tracer injection site, and used to collect arterial blood samples to estimate the time course of radioactivity and metabolism of GSK1034702. The radiotracer was administered as an IV bolus over 20 s, and dynamic PET data were acquired for 90 min.
Arterial blood radioactivity was measured continuously for the first 15 min after [^11C]GSK1034702 injection, using a continuous sampling system (ABSS Allogg, Mariefred, Sweden). In addition, 12 serial discrete blood samples were obtained (at 5, 10, 15, 20, 25, 30, 40, 50, 60, 70, 80 and 90 min post injection), to determine whole blood and plasma activity. Seven samples (at 5, 10, 20, 30, 50, 70 and 90 min) were further processed by HPLC to measure the fraction of plasma activity representing unmetabolised GSK1034702. For all human studies, the non-protein-bound fraction of [^11C]GSK1034702 in arterial plasma (fP) was assessed by ultrafiltration for the blood sample taken at the beginning of the scan.
Emission PET data were binned into 26 frames (durations: 8 × 15 s, 3 × 60 s, 5 × 2 min, […], 5 × 10 min) and reconstructed using Fourier re-binning and a two-dimensional (2D) filtered back projection algorithm with a ramp filter. Image data were then smoothed with a Gaussian filter (5 mm FWHM). The PET reconstruction process included corrections for scatter, randoms and attenuation. Dynamic PET data were corrected for motion via frame-to-frame image registration and aligned with the structural T1 MRI image using SPM5 (Wellcome Trust Centre for Neuroimaging, http://www.fil.ion.ucl.ac.uk/spm) with a mutual information cost function.
The CIC Neuroanatomical Atlas was non-linearly deformed into the individual's space to obtain a personalised anatomical parcellation of ROIs. These ROIs were applied to the dynamic emission data, and regional TACs were obtained for the whole brain, frontal cortex, occipital cortex, striatum, thalamus, hippocampus and cerebellum. […]

Details of data set [3]: method as in GlaxoSmithKline (GSK) data on file. To be noted: rat; ref GlaxoSmithKline (GSK) data on file; cited from earlier work.
A short description of data set [4]: fP/fND ratio from equilibrium dialysis (expected VT for passive diffusion), primate. Format: in vitro ADME. As to conditions: primate brain; monkey fP and monkey brain fND. The source says: If a value for fND can be obtained, then the assumption of passive diffusion across the BBB can be tested. Under the conditions of passive diffusion, at equilibrium, CFT = CFP, and Eq. 3 is simplified to:4 VT=fP/fND
A VT measurement from a PET biodistribution study can be compared to the fP/fND ratio, and passive diffusion can be assumed if the two are similar. Equilibrium dialysis provides a practical method for measurements of brain tissue fND (and also fP if necessary).
Regional TACs with an arterial plasma metabolite- corrected input function were fitted using compartmental analyses, and estimates of the delivery rate constant for transfer from arterial plasma to tissue (K1) and VT were obtained. VT estimates derived were compared to in vitro estimates derived from equilibrium dialysis to investigate the BBB transport process.
(§3) The in vitro brain and plasma protein binding of GSK1034702 across a range of species was determined using equilibrium dialysis as described previously.

Data set [5] in a line: plasma protein binding by equilibrium dialysis, mouse. Format: in vitro ADME. As to conditions: equilibrium dialysis 5 h. How it is done:
as §3
(Equilibrium dialysis compares concentrations on both sides of a semipermeable membrane.)

The nature of data set [6]: safety and tolerability of single 5-mg oral dose in healthy males. Format: in vivo, human. As to conditions: single oral dose of 5 mg. How it is done:
as §1, §2

Where two headings read alike, the source gives them in different places.

For the molecule `Cc1cc(F)c2[nH]c(=O)n(C3CCN(C4CCOCC4)CC3)c2c1` [GSK1034702], the brain/blood ratio in data set [1] was 0.4; in data set [3], 0.6. In addition, the Kp in data set [2] (cortex, read-out: VT measured in the human cortex) worked out at 4.9; in data set [2] (whole brain, two-tissue compartmental model, read-out: whole brain VT), 4.9. Also, the “fP/fND ratio (expected VT if passive diffusion)” value in data set [4] is listed as 3.4. For the same molecule, the fraction unbound at 5 h, 1 μg/mL was 0.518 in data set [5] (mean ± SD, n = 6, read-out: Plasma protein binding (converted)) and 0.52 in data set [5] (read-out: f P (plasma-free fraction)). Besides, the serious adverse events result in data set [6] is recorded as “No serious adverse events”. Besides, the tolerability result in data set [6] (healthy male subjects) was “well tolerated”. In data set [6] (one subject, salivary hypersecretion and dysgeusia, considered drug-related), the adverse events entry is “two mild and transient adverse events”.

Values taken from PMC4452589, “An evaluation of the brain distribution of [^11C]GSK1034702, a muscarinic-1 (M1) positive allosteric modulator in the living human brain using positron emission tomography” (EJNMMI Research, 2014).
